Test results as given in patent publication US20260166128A1, “HUMAN AMYLIN ANALOG, AND DERIVATIVE THEREOF AND USE THEREOF” (priority 2022, published 2026).
Numbered stars: 1 amine (or outer) side, 2 acyl side, 3 side chain; on linkers, the order of the positions; unused ones are H or OH. Bridge positions count the residues as written; N and C are the ends. Square brackets hold non-standard residues; d marks the D form. Side chains are listed from the residue outwards. Peptide text beside a SMILES is read from it. * marks the point of attachment. C20 diacid = O=C(O)CCCCCCCCCCCCCCCCCCC(=O)*; C18 diacid = O=C(O)CCCCCCCCCCCCCCCCC(=O)*; γGlu = O=C(O)[C@H](CCC(=O)[*:2])N[*:1]; Hyp = O=C(O)[C@@H]1C[C@@H](O)CN1; AEEA = NCCOCCOCC(=O)O

biological target: T1, human amylin receptor (Homo sapiens, UniProt O60896+P30988); experiment: Luciferase assay of amylin derivatives in amylin receptor/CRE-luc CHO cell line; format: cell-based; conditions: CHO-K1/Ga15/AMY3 CRE-luc cells, 24 hours incubation, F12 medium containing 10% FBS; read-out: EC50
T1 construct: host or cells: CHO-K1/Ga15/AMY3 cells, further stably transfected with a CRE-luciferase plasmid
T1 sequence (P30988 25-474): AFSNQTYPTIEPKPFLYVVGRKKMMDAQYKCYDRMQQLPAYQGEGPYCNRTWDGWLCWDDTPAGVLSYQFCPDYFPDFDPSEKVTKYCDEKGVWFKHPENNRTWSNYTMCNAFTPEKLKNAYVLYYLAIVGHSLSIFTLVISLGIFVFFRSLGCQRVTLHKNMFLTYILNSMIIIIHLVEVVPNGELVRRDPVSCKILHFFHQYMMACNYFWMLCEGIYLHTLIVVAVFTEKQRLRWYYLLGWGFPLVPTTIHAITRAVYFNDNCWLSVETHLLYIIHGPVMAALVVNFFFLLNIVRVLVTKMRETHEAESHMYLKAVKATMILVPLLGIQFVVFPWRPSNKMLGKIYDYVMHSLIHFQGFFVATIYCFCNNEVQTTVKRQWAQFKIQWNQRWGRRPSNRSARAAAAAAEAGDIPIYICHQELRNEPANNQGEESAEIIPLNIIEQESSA
T1 sequence (O60896 24-148 partner): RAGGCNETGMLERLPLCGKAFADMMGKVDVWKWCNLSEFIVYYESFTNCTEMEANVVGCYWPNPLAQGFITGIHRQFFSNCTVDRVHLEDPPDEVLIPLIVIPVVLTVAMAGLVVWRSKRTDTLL
Protocol: The experiment was intended to detect the activity or efficacy of the amylin derivatives on a human amylin receptor in vitro by luciferase assay.
50 μL of growth medium (F12 medium containing 10% FBS) was added into each well of a white 96-well plate, and the stably transfected amylin/CRE-lue CHO cells were inoculated into the white 96-well plate at a density of about 20,000 cells/well for activity determination.

Row | EC50 | Compound
1 | 0.008 nM | CC[C@H](C)[C@H](NC(=O)[C@@H]1CCCN1C(=O)CNC(=O)[C@H](CCCCNC(=O)CC[C@H](NC(=O)CCCCCCCCCCCCCCCCC(=O)O)C(=O)O)NC(=O)[C@H](CC(N)=O)NC(=O)[C@H](CC(N)=O)NC(=O)[C@H](CO)NC(=O)[C@H](CO)NC(=O)[C@H](Cc1c[nH]cn1)NC(=O)[C@H](CCCNC(=N)N)NC(=O)[C@H](CC(C)C)NC(=O)[C@H](Cc1ccccc1)NC(=O)[C@H](CC(=O)O)NC(=O)[C@H](C)NC(=O)[C@H](CC(C)C)NC(=O)[C@H](CCCNC(=N)N)NC(=O)[C@H](CCC(N)=O)NC(=O)[C@@H](NC(=O)[C@H](C)NC(=O)[C@@H]1CSSC[C@H](NC(=O)[C@@H](N)CCCNC(=N)N)C(=O)N[C@@H](CC(N)=O)C(=O)N[C@@H]([C@@H](C)O)C(=O)N[C@@H](C)C(=O)N[C@@H]([C@@H](C)O)C(=O)N1)[C@@H](C)O)C(=O)N[C@@H](CC(C)C)C(=O)N1CCC[C@H]1C(=O)N1CCC[C@H]1C(=O)N[C@H](C(=O)N[C@@H](CC(N)=O)C(=O)N[C@H](C(=O)NCC(=O)N[C@@H](CO)C(=O)N[C@@H](CC(N)=O)C(=O)N[C@H](C(=O)N1C[C@H](O)C[C@H]1C(N)=O)[C@@H](C)O)C(C)C)[C@@H](C)O [PD084] (H-RCNTATCATQRLADFLRHSSNNK([γGlu-C18 diacid])GPILPPTNVGSNT[Hyp]-NH2; disulfide 2-7 (inferred); N-terminus assumed)
2 | 0.039 nM | CC[C@H](C)[C@H](NC(=O)[C@@H]1CCCN1C(=O)CNC(=O)[C@H](CCCCNC(=O)COCCOCCNC(=O)CC[C@H](NC(=O)CCCCCCCCCCCCCCCCCCC(=O)O)C(=O)O)NC(=O)[C@H](CC(N)=O)NC(=O)[C@H](CC(N)=O)NC(=O)[C@H](CO)NC(=O)[C@H](CO)NC(=O)[C@H](Cc1c[nH]cn1)NC(=O)[C@H](CCCNC(=N)N)NC(=O)[C@H](CC(C)C)NC(=O)[C@H](Cc1ccccc1)NC(=O)[C@H](CC(=O)O)NC(=O)[C@H](C)NC(=O)[C@H](CC(C)C)NC(=O)[C@H](CCCNC(=N)N)NC(=O)[C@H](CCC(N)=O)NC(=O)[C@@H](NC(=O)[C@H](C)NC(=O)[C@@H]1CSSC[C@H](NC(=O)[C@@H](N)CCCNC(=N)N)C(=O)N[C@@H](CC(N)=O)C(=O)N[C@@H]([C@@H](C)O)C(=O)N[C@@H](C)C(=O)N[C@@H]([C@@H](C)O)C(=O)N1)[C@@H](C)O)C(=O)N[C@@H](CC(C)C)C(=O)N1CCC[C@H]1C(=O)N1CCC[C@H]1C(=O)N[C@H](C(=O)N[C@@H](CC(N)=O)C(=O)N[C@H](C(=O)NCC(=O)N[C@@H](CO)C(=O)N[C@@H](CC(N)=O)C(=O)N[C@H](C(=O)N1C[C@H](O)C[C@H]1C(N)=O)[C@@H](C)O)C(C)C)[C@@H](C)O [PD110] (H-RCNTATCATQRLADFLRHSSNNK([AEEA-γGlu-C20 diacid])GPILPPTNVGSNT[Hyp]-NH2; disulfide 2-7)
3 | 0.014 nM | CC[C@H](C)[C@H](NC(=O)[C@@H]1CCCN1C(=O)CNC(=O)[C@H](CC(C)C)NC(=O)[C@H](CC(N)=O)NC(=O)[C@H](CC(N)=O)NC(=O)[C@H](CCCCNC(=O)COCCOCCNC(=O)COCCOCCNC(=O)CC[C@H](NC(=O)CCCCCCCCCCCCCCCCC(=O)O)C(=O)O)NC(=O)[C@H](CO)NC(=O)[C@H](Cc1c[nH]cn1)NC(=O)[C@H](CCCNC(=N)N)NC(=O)[C@H](CC(C)C)NC(=O)[C@H](Cc1ccccc1)NC(=O)[C@H](CC(=O)O)NC(=O)[C@H](C)NC(=O)[C@H](CC(C)C)NC(=O)[C@H](CCCNC(=N)N)NC(=O)[C@H](CCC(N)=O)NC(=O)[C@@H](NC(=O)[C@H](C)NC(=O)[C@@H]1CSSC[C@H](NC(=O)[C@@H](N)CCCNC(=N)N)C(=O)N[C@@H](CC(N)=O)C(=O)N[C@@H]([C@@H](C)O)C(=O)N[C@@H](C)C(=O)N[C@@H]([C@@H](C)O)C(=O)N1)[C@@H](C)O)C(=O)N[C@@H](CC(C)C)C(=O)N1CCC[C@H]1C(=O)N1CCC[C@H]1C(=O)N[C@H](C(=O)N[C@@H](CC(N)=O)C(=O)N[C@H](C(=O)NCC(=O)N[C@@H](CO)C(=O)N[C@@H](CC(N)=O)C(=O)N[C@H](C(=O)N1C[C@H](O)C[C@H]1C(N)=O)[C@@H](C)O)C(C)C)[C@@H](C)O [PD097] (H-RCNTATCATQRLADFLRHSK([AEEA-AEEA-γGlu-C18 diacid])NNLGPILPPTNVGSNT[Hyp]-NH2; disulfide 2-7)

More lines, now with the values behind:

Row | Compound | EC50
4 | CC[C@H](C)[C@H](NC(=O)[C@@H]1CCCN1C(=O)[C@H](Cc1c[nH]cn1)NC(=O)[C@H](CC(C)C)NC(=O)[C@H](CC(N)=O)NC(=O)[C@H](CC(N)=O)NC(=O)[C@H](CO)NC(=O)[C@H](CO)NC(=O)[C@H](Cc1c[nH]cn1)NC(=O)[C@H](CCCNC(=N)N)NC(=O)[C@H](CC(C)C)NC(=O)[C@H](Cc1ccccc1)NC(=O)[C@H](CC(=O)O)NC(=O)[C@H](C)NC(=O)[C@H](CC(C)C)NC(=O)[C@H](CCCNC(=N)N)NC(=O)[C@H](CCC(N)=O)NC(=O)[C@@H](NC(=O)[C@H](C)NC(=O)[C@@H]1CSSC[C@H](NC(=O)[C@H](CCCCN)NC(=O)CC[C@H](NC(=O)CCCCCCCCCCCCCCCCCCC(=O)O)C(=O)O)C(=O)N[C@@H](CC(N)=O)C(=O)N[C@@H]([C@@H](C)O)C(=O)N[C@@H](C)C(=O)N[C@@H]([C@@H](C)O)C(=O)N1)[C@@H](C)O)C(=O)N[C@@H](CC(C)C)C(=O)N1CCC[C@H]1C(=O)N1CCC[C@H]1C(=O)N[C@H](C(=O)N[C@@H](CC(N)=O)C(=O)N[C@H](C(=O)NCC(=O)N[C@@H](CO)C(=O)N[C@@H](CC(N)=O)C(=O)N[C@H](C(=O)N1CCC[C@H]1C(N)=O)[C@@H](C)O)C(C)C)[C@@H](C)O [PD162] ({C20 diacid-γGlu}-KCNTATCATQRLADFLRHSSNNLHPILPPTNVGSNTP-NH2; disulfide 2-7 (inferred)) | 0.035 nM
5 | CC[C@H](C)[C@H](NC(=O)[C@@H]1CCCN1C(=O)[C@H](CCCCNC(=O)CC[C@H](NC(=O)CCCCCCCCCCCCCCCCCCC(=O)O)C(=O)O)NC(=O)[C@H](CC(C)C)NC(=O)[C@H](CC(N)=O)NC(=O)[C@H](CC(N)=O)NC(=O)[C@H](CO)NC(=O)[C@H](CO)NC(=O)[C@H](Cc1c[nH]cn1)NC(=O)[C@H](CCCNC(=N)N)NC(=O)[C@H](CC(C)C)NC(=O)[C@H](Cc1ccccc1)NC(=O)[C@H](CCC(=O)O)NC(=O)[C@H](C)NC(=O)[C@H](CC(C)C)NC(=O)[C@H](CCCNC(=N)N)NC(=O)[C@H](CCC(N)=O)NC(=O)[C@@H](NC(=O)[C@H](C)NC(=O)[C@@H]1CSSC[C@H](N)C(=O)N[C@@H](CC(N)=O)C(=O)N[C@@H]([C@@H](C)O)C(=O)N[C@@H](C)C(=O)N[C@@H]([C@@H](C)O)C(=O)N1)[C@@H](C)O)C(=O)N[C@@H](CC(C)C)C(=O)N1CCC[C@H]1C(=O)N1CCC[C@H]1C(=O)N[C@H](C(=O)N[C@@H](CC(N)=O)C(=O)N[C@H](C(=O)NCC(=O)N[C@@H](CO)C(=O)N[C@@H](CC(N)=O)C(=O)N[C@H](C(=O)N1C[C@H](O)C[C@H]1C(N)=O)[C@@H](C)O)C(C)C)[C@@H](C)O [PD053] (H-CNTATCATQRLAEFLRHSSNNLK([γGlu-C20 diacid])PILPPTNVGSNT[Hyp]-NH2; disulfide 1-6) | 0.075 nM
